Literature values in PubChem BioAssay AID1259409 (Chemical Carcinogenesis Research Information System (CCRIS), 2018).

System: rodent chemically induced tumor inhibition, incidence and multiplicity
Assay: CCRIS tumor inhibitor studies
Settings: Carcinogen: 4-(METHYLNITROSAMINO)-1-(3-PYRIDYL)-1-BUTANONE, 64091-91-4, Dose [Inhibitor]: 0, Promoter: NONE USED

For S=C=NCCCCCCc1ccccc1, the “tumour outcome (control, treated, inhibition, significance)” value (1 UMOL 1/D FOR 4 D ADMINISTERED PRIOR TO CARCINOGEN TREATMENT (STUDY DURATION: 116 D), Route [Inhibitor]: GAVAGE, Species: MOUSE, Strain/Sex: STRAIN A, Target Tissue: Type of Lesion: LUNG: ADENOMA, Dose [Carcinogen]: 10 UMOL ONCE 2 HR AFTER FINAL DOSE OF INHIBITOR) is listed as 100%, 0%, 100%, p<0.05, the “tumour outcome (control, treated, inhibition, significance)” value (5 UMOL 1/D FOR 4 D ADMINISTERED PRIOR TO CARCINOGEN TREATMENT (STUDY DURATION: 116 D), Route [Inhibitor]: GAVAGE, Species: MOUSE, Strain/Sex: STRAIN A, Target Tissue: Type of Lesion: LUNG: ADENOMA, Dose [Carcinogen]: 10 UMOL ONCE 2 HR AFTER FINAL DOSE OF INHIBITOR) is listed as 100%, 5%, 95%, p<0.05 and the “tumour outcome (control, treated, inhibition, significance)” value (0.04 UMOL ONCE 2 HR PRIOR TO CARCINOGEN DOSE (STUDY DURATION: 16 WK), Route [Inhibitor]: GAVAGE, Species: MOUSE, Strain/Sex: STRAIN-A/FEMALE, Target Tissue: Type of Lesion: LUNG: ADENOMA, Dose [Carcinogen]: 10 UMOL IN 0.1 ML SALINE ONCE) is listed as 100%, 100%, 0%, not significant. The “tumour outcome (control, treated, inhibition, significance)” value (0.1 UMOL ONCE 2 HR PRIOR TO CARCINOGEN DOSE (STUDY DURATION: 16 WK), Route [Inhibitor]: GAVAGE, Species: MOUSE, Strain/Sex: STRAIN-A/FEMALE, Target Tissue: Type of Lesion: LUNG: ADENOMA, Dose [Carcinogen]: 10 UMOL IN 0.1 ML SALINE ONCE) was 100%, 100%, 0%, not significant, the “tumour outcome (control, treated, inhibition, significance)” value (0.2 UMOL ONCE 2 HR PRIOR TO CARCINOGEN DOSE (STUDY DURATION: 16 WK), Route [Inhibitor]: GAVAGE, Species: MOUSE, Strain/Sex: STRAIN-A/FEMALE, Target Tissue: Type of Lesion: LUNG: ADENOMA, Dose [Carcinogen]: 10 UMOL IN 0.1 ML SALINE ONCE) was 100%, 100%, 0%, not significant and the “tumour outcome (control, treated, inhibition, significance)” value (1 UMOL/G DIET FOR DURATION OF STUDY BEGINNING 1 WK PRIOR TO CARCINOGEN TREATMENT (STUDY DURATION: 112 WK), Route [Inhibitor]: ORAL, Species: RAT, Strain/Sex: F344/MALE, Target Tissue: Type of Lesion: HEMATOPOIETIC SYSTEM: LEUKEMIA OR LYMPHOMA, Dose [Carcinogen]: 2 PPM IN DRINKING WATER FOR 111 WK) was 26/56 (46%), 11/57 (19%), 59%, p=0.002. The “tumour outcome (control, treated, inhibition, significance)” value (1 UMOL/G DIET FOR DURATION OF STUDY BEGINNING 1 WK PRIOR TO CARCINOGEN TREATMENT (STUDY DURATION: 112 WK), Route [Inhibitor]: ORAL, Species: RAT, Strain/Sex: F344/MALE, Target Tissue: Type of Lesion: LIVER: ADENOMA, Dose [Carcinogen]: 2 PPM IN DRINKING WATER FOR 111 WK) was 2/55 (4%), 4/50 (8%), -100%, not significant, the “tumour outcome (control, treated, inhibition, significance)” value (1 UMOL/G DIET FOR DURATION OF STUDY BEGINNING 1 WK PRIOR TO CARCINOGEN TREATMENT (STUDY DURATION: 112 WK), Route [Inhibitor]: ORAL, Species: RAT, Strain/Sex: F344/MALE, Target Tissue: Type of Lesion: LIVER: CARCINOMA, Dose [Carcinogen]: 2 PPM IN DRINKING WATER FOR 111 WK) was 3/55 (5%), 1/50 (2%), 60%, not significant and the “tumour outcome (control, treated, inhibition, significance)” value (1 UMOL/G DIET FOR DURATION OF STUDY BEGINNING 1 WK PRIOR TO CARCINOGEN TREATMENT (STUDY DURATION: 112 WK), Route [Inhibitor]: ORAL, Species: RAT, Strain/Sex: F344/MALE, Target Tissue: Type of Lesion: LUNG: ADENOCARCINOMA, Dose [Carcinogen]: 2 PPM IN DRINKING WATER FOR 111 WK) was 23/56 (41%), 9/57 (16%), 61%, p=0.003. The “tumour outcome (control, treated, inhibition, significance)” value (1 UMOL/G DIET FOR DURATION OF STUDY BEGINNING 1 WK PRIOR TO CARCINOGEN TREATMENT (STUDY DURATION: 112 WK), Route [Inhibitor]: ORAL, Species: RAT, Strain/Sex: F344/MALE, Target Tissue: Type of Lesion: LUNG: ADENOMA, Dose [Carcinogen]: 2 PPM IN DRINKING WATER FOR 111 WK) was 16/56 (29%), 6/57 (11%), 62%, p=0.015 and the “tumour outcome (control, treated, inhibition, significance)” value (1 UMOL/G DIET FOR DURATION OF STUDY BEGINNING 1 WK PRIOR TO CARCINOGEN TREATMENT (STUDY DURATION: 112 WK), Route [Inhibitor]: ORAL, Species: RAT, Strain/Sex: F344/MALE, Target Tissue: Type of Lesion: NASAL CAVITY: PAPILLOMA OR CARCINOMA, Dose [Carcinogen]: 2 PPM IN DRINKING WATER FOR 111 WK) was 1/48 (2%), 2/45 (4%), -100%, not significant.
